Data reported in US20190100534A1, “Cephem Compounds with Latent Reactive Groups” (Gladius Pharmaceuticals, Inc., priority 2017, published 2019).

Key:
Type in all cases: cell-based
[1] = system: Isogenic E. coli J58 strain carrying VIM-2; test: MIC determination, isogenic E. coli strains; details: for MIC: Escherichia coli, 18 h, read-out: Mimimum Inhibitory Concentrations, VIM-2; for MICs for an E. coli strain carrying the gene for carbapenemase VIM-1, in words: review of Tables 4-1 and 4-2
Procedure, shortened: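 Broth microdilution in cation-adjusted Mueller-Hinton with 20 μM apo-transferrin, compound serially halved from 64 μg/mL, read by eye after 18 h at 37 °C as lowest clear well. Inoculum: VIM-2-expressing E. coli J53 (pBC-SK(+) plasmid), adjusted to 0.5 McFarland.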

[2] = system: Isogenic E. coli J58 strain carrying CTX-M-15; test: MIC determination, isogenic E. coli strains; details: Escherichia coli, 18 h, read-out: Mimimum Inhibitory Concentrations, CTX-M-15
Procedure, shortened: (§1)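 Isogenic E. coli J53 carrying plasmid-encoded CTX-M-14 or CTX-M-15 (ampicillin-selected), standardized to 0.08-0.1 OD600, incubated overnight (18 h, 37° C.) in CAMH broth plus 20 μM apo-transferrin over 2-fold compound dilutions starting at 64 μg/mL. Lowest concentration with no visible growth recorded as MIC.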

[3] = system: Isogenic E. coli J58 strain carrying CTX-M-14; test: MIC determination, isogenic E. coli strains; details: Escherichia coli, 18 h, read-out: Mimimum Inhibitory Concentrations, CTX-M-14
Procedure, shortened: as §1

[4] = system: Pseudomonas aeruginosa PA-RR-(G7294437); test: MIC determination; details: Pseudomonas aeruginosa; PA-RR-(G7294437); CAMH broth, 20 μM Apo-Transferrin, 37° C., 18 hours; read-out: Minimum Inhibitory Concentrations, PA-RR-(G7294437)
Method: (§2) Sterile technique was used throughout these experiments. Suspensions of organisms were removed from storage (−80° C.) and partially thawed. Partially thawed organisms (1 μL) were inoculated into 3 mL sterile LB Broth in a sterile culture tube and capped, then cultured at 37° C. with shaking for 4-5 hours until the optical density at 600 nm (OD600) was greater than 0.1 on a single beam spectrophotometer.
(§3) The concentration of organisms was adjusted to 0.08-0.1 OD600 (0.5 McFarland units) by dilution with sterile cation-adjusted Meuller-Hinton (CAMH) broth. The suspensions were used within 30 minutes of preparation.
(§4) A stock solution was made of each test compound by measuring 6.4 mg of the compound on an analytical balance and dissolving it in DMSO (1 mL) to get a transparent solution. The solutions were stored at −20° C. and thawed prior to use.
(§5) Sterile CAMH broth (200 μL) containing 20 μM Apo-Transferrin was pipetted into the first row of 8 columns of a sterile, round-bottomed, transparent, 96-well microplate using an 8-channel pipette equipped with sterile tips. One hundred μL was pipetted into the wells of the remaining 11 rows.
(§6) With an 8-channel pipette equipped with sterile tips, 100 μL of the first row solution was transferred to the second row and mixed. The process was repeated for the second to third rows and continued through row 11. One hundred μL from row 11 was removed and discarded so that all 12 rows contained 100 μL. Row 12 contained no compound and rows 1-11 contained 64, 32, 16, 8, 4, 2, 1, 0.5, 0.25, 0.125, […] of a given compound.
(§7) Inoculant suspensions (0.5 μL) were added to the 12 wells of each column. The plates were then covered and incubated at 37° C. overnight for 18 hours.
(§8) For each organism the MIC was determined by identifying the transparent well with the lowest test compound concentration.

[5] = system: Pseudomonas aeruginosa PA-RR-(purple Fre D); test: MIC determination; details: Pseudomonas aeruginosa, CAMH broth, 20 μM Apo-Transferrin, 37° C., 18 hours, read-out: Minimum Inhibitory Concentrations, PA-RR-(purple Fre D)
Method: as §2, §3, §4, §5, §6, §7, §8

[6] = system: Pseudomonas aeruginosa PA (RR-1); test: MIC determination; details: Pseudomonas aeruginosa; PA (RR-1); CAMH broth, 20 μM Apo-Transferrin, 37° C., 18 hours; read-out: Minimum Inhibitory Concentrations, PA (RR-1)
Method: as §2, §3, §4, §5, §6, §7, §8

[7] = system: Pseudomonas aeruginosa PA-RR-(G8062859); test: MIC determination; details: Pseudomonas aeruginosa; PA-RR-(G8062859); CAMH broth, 20 μM Apo-Transferrin, 37° C., 18 hours; read-out: Minimum Inhibitory Concentrations, PA-RR-(G8062859)
Method: as §2, §3, §4, §5, §6, §7, §8

[8] = system: Pseudomonas aeruginosa PA (URMC-2); test: MIC determination; details: Pseudomonas aeruginosa; PA (URMC-2); CAMH broth, 20 μM Apo-Transferrin, 37° C., 18 hours; read-out: Minimum Inhibitory Concentrations, PA (URMC-2)
Method: as §2, §3, §4, §5, §6, §7, §8

[9] = system: Pseudomonas aeruginosa (PA); test: MIC determination; details: Pseudomonas aeruginosa; PA; CAMH broth, 20 μM Apo-Transferrin, 37° C., 18 hours; read-out: Minimum Inhibitory Concentrations, PA
Method: as §2, §3, §4, §5, §6, §7, §8

[10] = system: Isogenic E. coli J58 strain carrying NDM-1; test: MIC determination, isogenic E. coli strains; details: Escherichia coli, 18 h, read-out: Mimimum Inhibitory Concentrations, NDM-1
Procedure, shortened: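 Broth microdilution was run in cation-adjusted Mueller-Hinton broth supplemented with 20 μM apo-transferrin, using a 64 μg/mL top concentration diluted twofold. The inoculum was NDM-1-expressing E. coli J53 (pBC-SK(+) plasmid) at 0.5 McFarland. After overnight incubation (18 h, 37° C), the lowest compound concentration preventing visible growth was recorded as the MIC.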

E. coli J53 Alone = test: MIC determination, isogenic E. coli strains; details: for MIC: Escherichia coli, J53ALONE, 18 h, read-out: Mimimum Inhibitory Concentrations, J53 Alone; for Mimimum Inhibitory Concentrations, J53 Alone: Table 4-2, CAMH broth, 20 μM Apo-Transferrin, 37° C., 18 hours
Procedure, shortened: (§9)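 MIC read as the lowest compound level giving a transparent well after 18 h at 37° C. Strains: parent E. coli J53 and isogenic transformants expressing plasmid-borne (pBC-SK(+)) beta-lactamases such as DHA-1; inoculum 0.5 McFarland; CAMH broth plus 20 μM apo-transferrin; compound 64 μg/mL downward, 2-fold dilutions.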

[11] = system: Isogenic E. coli J58 strain carrying DHA-1; test: MIC determination, isogenic E. coli strains; details: Escherichia coli, 18 h, read-out: Mimimum Inhibitory Concentrations, DHA-1
Procedure, shortened: as §9

[12] = system: Isogenic E. coli J58 strain carrying SHV-1; test: MIC determination, isogenic E. coli strains; details: Escherichia coli, 18 h, read-out: Mimimum Inhibitory Concentrations, SHV-1
Procedure, shortened: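 MIC is the lowest compound concentration leaving a transparent well after overnight (18 h) incubation at 37 °C. The test strain was E. coli J53 expressing plasmid-borne SHV-1 beta-lactamase from pBC-SK(+), adjusted to 0.5 McFarland. Compounds were twofold serially diluted, starting at 64 μg/mL, in CAMH broth supplemented with 20 μM apo-transferrin.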

[13] = system: Isogenic E. coli J58 strain carrying IMP-1; test: MIC determination, isogenic E. coli strains
Procedure, shortened: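 Broth microdilution in cation-adjusted Mueller-Hinton broth with 20 μM apo-transferrin, compound serially diluted two-fold from 64 μg/mL, against E. coli J53 carrying plasmid-borne IMP-1. Inoculum adjusted to 0.5 McFarland; plates incubated 18 h at 37° C. MIC taken as lowest concentration giving a clear well.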

[14] = system: Isogenic E. coli J58 strain carrying KPC-2; test: MIC determination, isogenic E. coli strains; details: Escherichia coli, 18 h, read-out: Mimimum Inhibitory Concentrations, KPC-2
Procedure, shortened: (§10)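 Strain: E. coli J53 electroporated with a pBC-SK(+) plasmid encoding the KPC enzyme, selected on ampicillin. Twofold dilutions ([…]) were made in CAMH broth containing 20 μM apo-transferrin and inoculated at 0.5 McFarland. After overnight (18 h) growth at 37 °C, MIC was read as the lowest concentration with no visible growth.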

[15] = system: Isogenic E. coli J58 strain carrying KPC-3; test: MIC determination, isogenic E. coli strains; details: Escherichia coli, 18 h, read-out: Mimimum Inhibitory Concentrations, KPC-3
Procedure, shortened: as §10

[16] = system: Isogenic E. coli J58 strain carrying TEM-26; test: MIC determination, isogenic E. coli strains; details: Escherichia coli, 18 h, read-out: Mimimum Inhibitory Concentrations, TEM-26
Procedure, shortened: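 E. coli J53 carried a pBC-SK(+) plasmid expressing TEM-26 β-lactamase. Compounds were serially halved from […] in CAMH broth containing 20 μM apo-transferrin, inoculated from a 0.5 McFarland culture and held overnight (18 h, 37° C); MIC read as the lowest concentration without visible growth.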

| Structure (SMILES) | MIC [1] [µg/mL] | MIC [2] [µg/mL] | MIC [3] [µg/mL] | MIC [4] [µg/mL] | MIC [5] [µg/mL] | MIC [6] [µg/mL] | MIC [7] [µg/mL] | MIC [8] [µg/mL] | MIC [9] [µg/mL] | MIC [10] [µg/mL] | MIC (E. coli J53 Alone) [µg/mL] | Mimimum Inhibitory Concentrations, J53 Alone (E. coli J53 Alone) [microgram/mL] | MICs for an E. coli strain carrying the gene for carbapenemase VIM-1, in words [1] | MIC [11] [µg/mL] | MIC [12] [µg/mL] | MICs for an E. coli strain carrying the gene for carbapenemase IMP-1, in words ([13]; review of Tables 4-1 and 4-2) | MIC ([13]; Escherichia coli, 18 h, read-out: Mimimum Inhibitory Concentrations, IMP-1) [µg/mL] | MIC [14] [µg/mL] | MIC [15] [µg/mL] | MIC [16] [µg/mL] |
| --- | --- | --- | --- | --- | --- | --- | --- | --- | --- | --- | --- | --- | --- | --- | --- | --- | --- | --- | --- | --- |
| CC(C)(O/N=C(\C(=O)N[C@@H]1C(=O)N2C(C(=O)O)=C(C=Cc3ccc(C[n+]4ccc(-c5ccc(O)c(O)c5)cc4)cc3)CS[C@H]12)c1csc(N)n1)C(=O)O (mixture of isomers) [Compound 412, 1-(4-((E/Z)-2-((6R,7R)-7-((Z)-2-(2-aminothiazol-4-yl)-2-(((2-carboxypropan-2-yl)oxy)imino)acetamido)-2-carboxy-8-oxo-5-thia-1-azabicyclo[4.2.0]oct-2-en-3-yl)vinyl)benzyl)-4-(3,4-dihydroxyphenyl)pyridin-1-ium] | 0.5 | 0.13 | 0.5 | 1 | 2 | 4 | 1 | 2 | 2 | > 64 | ≤ 0.06 | ≤0.06 |  |  |  |  |  |  |  |  |
| CC(C)(O/N=C(\C(=O)N[C@@H]1C(=O)N2C(C(=O)O)=C(C=Cc3ccc(C[N+]4(C)Cc5c(Cl)c(O)c(O)c(Cl)c5C4)cc3)CS[C@H]12)c1csc(N)n1)C(=O)O (mixture of isomers) [Compound 431, 2-(4-((E/Z)-2-((6R,7R)-7-((Z)-2-(2-aminothiazol-4-yl)-2-(((2-carboxypropan-2-yl)oxy)imino)acetamido)-2-carboxy-8-oxo-5-thia-1-azabicyclo[4.2.0]oct-2-en-3-yl)vinyl)benzyl)-4,7-dichloro-5,6-dihydroxy-2-methylisoindolin-2-ium] | ≤ 0.06 | 0.13 | 0.13 | ≤ 0.06 | 0.5 | 0.13 | 0.5 | ≤ 0.06 | 0.25 | > 64 | ≤ 0.06 | ≤0.06 | low microgram/mL MICs | 1 | 0.13 |  |  |  |  |  |
| CC(C)(O/N=C(\C(=O)N[C@@H]1C(=O)N2C(C(=O)O)=C(C=Cc3ccc(C[N+]4(C)Cc5cc(O)c(O)c(Cl)c5C4)cc3)CS[C@H]12)c1csc(N)n1)C(=O)O (mixture of isomers) [Compound 432, 2-(4-((E/Z)-2-((6R,7R)-7-((Z)-2-(2-aminothiazol-4-yl)-2-(((2-carboxypropan-2-yl)oxy)imino)acetamido)-2-carboxy-8-oxo-5-thia-1-azabicyclo[4.2.0]oct-2-en-3-yl)vinyl)benzyl)-4-chloro-5,6-dihydroxy-2-methylisoindolin-2-ium] | ≤ 0.06 | ≤ 0.06 | ≤ 0.06 | ≤ 0.06 | 1 | 1 | 0.5 | 0.5 | 0.25 | > 64 | ≤ 0.06 | ≤0.06 | low microgram/mL MICs | ≤ 0.06 |  | low microgram/mL MICs |  |  |  |  |
| C#CC[N+]1(Cc2ccc(C=CC3=C(C(=O)O)N4C(=O)[C@@H](NC(=O)/C(=N\OC(C)(C)C(=O)O)c5csc(N)n5)[C@H]4SC3)cc2)CCc2cc(O)c(O)cc2C1 (mixture of isomers) [Compound 446, 2-(4-((E/Z)-2-((6R,7R)-7-((Z)-2-(2-aminothiazol-4-yl)-2-(((2-carboxypropan-2-yl)oxy)imino)acetamido)-2-carboxy-8-oxo-5-thia-1-azabicyclo[4.2.0]oct-2-en-3-yl)vinyl)benzyl)-6,7-dihydroxy-2-(prop-2-yn-1-yl)-1,2,3,4-tetrahydroisoquinolin-2-ium] | 0.25 | 0.25 | 0.25 |  |  |  |  |  |  | > 64 | 0.13 | 0.13 |  | 0.25 |  |  | 1 | 2 | 1 | 0.25 |
